Laboratory results from patent US12285440B2, “APOE4 impairs myelination via altered cholesterol biosynthesis and transport in oligodendroglia” (Massachusetts Institute of Technology, priority 2021, dated 2025).

What was measured:
Assay type in all cases: cell-based, human
APOE4 iMGLs [1] = assay: Purinergic signaling in TrC-treated APOE4 iMGLs; settings: 1 μM, 16 hours
NGN2-induced neurons = assay: MEA recording of NGN2-induced neurons exposed to iMGL conditioned media; settings: 24 hours after exposure to conditioned media from APOE4 iMGL pre-treated with TrC
Method: Having induced lipid formation in APOE3 iMGLs, we next attempted to deplete APOE4 iMGLs of lipid droplets to test whether this would alleviate APOE4 phenotypes. We turned to the ACSL1 inhibitor Triacsin C (TrC). […] Since TrC has also been reported to inhibit cholesterol biosynthesis and increase microglial phagocytosis, we decided to test if the extracellular accumulation of cholesterol in APOE4 iMGLs could be reduced by TrC treatment. After 16 hours, DMSO-treated controls or TrC-treated APOE4 iMGLs were washed off the drug treatment and allowed to condition the media for an additional 24 hours. […] NGN2-induced neurons from APOE3 or APOE4 iPS lines were seeded onto MEAs and allowed to mature for 3 weeks before being recorded 24 hours after exposure to conditioned media from APOE3 iMGLs, APOE4 iMGLs, or APOE4 iMGL treated with TrC. […]
Dissociated spheroids or NGN2-induced neurons were plated as a 10 μl droplet in Poly-D-Lysine (Sigma-Aldrich) coated wells of a CytoView MEA 48-well plate (Axion BioSystems; M768-tMEA-48B). […] Spontaneous neural activity was recorded for 30 minutes at a sampling rate of 12.5 kHz and an adaptive threshold set at 5.5 times the standard deviation of baseline noise was used for spike detection. Bursts were detected at each electrode using an inter-spike interval (ISI) threshold set to at least 5 spikes with a maximum ISI of 100 ms. […]

APOE4 iMGLs [2] = assay: Cholesterol in media of APOE4 iMGLs via ELISA; settings: 16 hours treatment, drug washed off, media conditioned 24 hours; vs DMSO-treated controls
Method: Having induced lipid formation in APOE3 iMGLs, we next attempted to deplete APOE4 iMGLs of lipid droplets to test whether this would alleviate APOE4 phenotypes. We turned to the ACSL1 inhibitor Triacsin C (TrC). […] Since TrC has also been reported to inhibit cholesterol biosynthesis and increase microglial phagocytosis, we decided to test if the extracellular accumulation of cholesterol in APOE4 iMGLs could be reduced by TrC treatment. After 16 hours, DMSO-treated controls or TrC-treated APOE4 iMGLs were washed off the drug treatment and allowed to condition the media for an additional 24 hours. […] We reasoned that a decrease in extracellular cholesterol accumulation in APOE4 iMGLs cultures treated with TrC was likely to also relieve the suppression of neuronal activity under APOE4 iMGL conditioned media. NGN2-induced neurons from APOE3 or APOE4 iPS lines were seeded onto MEAs and allowed to mature for 3 weeks before being recorded 24 hours after exposure to conditioned media from APOE3 iMGLs, APOE4 iMGLs, or APOE4 iMGL treated with TrC. […]
[…] Measurements were made using an EnSpire plate reader (Perkin Elmer). APOE levels were similarly processed and quantified from iMGL conditioned media using Apolipoprotein E Human ELISA kit (Invitrogen; #EHAPOE).

APOE4 iMGLs [3] = settings: 1 μM, 16 hours, vs DMSO-treated control cells
APOE3 iMGLs [4] = assay: Calcium imaging upon ATP uncaging in OA-treated APOE3 iMGLs; settings: 20 μM, 16 hours, vs untreated APOE3 iMGLs
APOE3 iMGLs [5] = assay: qPCR of OA-treated iMGLs; settings: 20 μM, 16 hours
APOE3 iMGLs [6] = assay: Lipid droplet induction in APOE3 iMGLs, BODIPY/IBA1 staining; settings: 20 μM, 16 hours

## CCC/C=C/C/C=C/C=C/C=N/NN=O [TrC, Triacsin C]
APOE4 iMGLs [1]
  purinergic signaling: purinergic signaling was restored after lipid droplet depletion
NGN2-induced neurons
  neuronal bursts / neural activity on MEA: increased neural activity to the level of neurons treated with APOE3 iMGL media
APOE4 iMGLs [2]
  levels of accumulated cholesterol in the media: significant decrease in the levels of accumulated cholesterol in the media
APOE4 iMGLs [3]
  BODIPY-positive lipid droplets: dramatically reduce BODIPY-positive lipid droplets relative to DMSO-treated control cells

## CCCCCCCC/C=C\CCCCCCCC(=O)O [OA, oleic acid]
APOE3 iMGLs [4]
  calcium transients evoked by ATP uncaging: sufficient to blunt calcium transients evoked by ATP uncaging relative to untreated APOE3 iMGLs
APOE3 iMGLs [5]
  CD74 expression by qPCR: upregulation of this gene
  expression of ACSL1: significantly induced the expression of ACSL1
APOE3 iMGLs [6]
  cell size of iMGLs: decrease in the cell size of iMGLs
APOE3 iMGLs [6]; IBA1-positive cells
  intracellular BODIPY-positive lipid droplets: accumulated intracellular BODIPY-positive lipid droplets
